Experimental data reported in article PMC5533298 (Structure (London, England : 1993), 2017).

Tests used:
Assay in all cases: absorbance of p-nitrophenol at […] nm
Type in all cases: biochemical
BdGUS = molecular target: T1, BdGUS (Phocaeicola dorei, UniProt Z9QL54SLC8); details: 800 uM PNPG, optimal pH, 37 C, 50 mM HEPES
T1 sequence (Z9QL54SLC8 25-879): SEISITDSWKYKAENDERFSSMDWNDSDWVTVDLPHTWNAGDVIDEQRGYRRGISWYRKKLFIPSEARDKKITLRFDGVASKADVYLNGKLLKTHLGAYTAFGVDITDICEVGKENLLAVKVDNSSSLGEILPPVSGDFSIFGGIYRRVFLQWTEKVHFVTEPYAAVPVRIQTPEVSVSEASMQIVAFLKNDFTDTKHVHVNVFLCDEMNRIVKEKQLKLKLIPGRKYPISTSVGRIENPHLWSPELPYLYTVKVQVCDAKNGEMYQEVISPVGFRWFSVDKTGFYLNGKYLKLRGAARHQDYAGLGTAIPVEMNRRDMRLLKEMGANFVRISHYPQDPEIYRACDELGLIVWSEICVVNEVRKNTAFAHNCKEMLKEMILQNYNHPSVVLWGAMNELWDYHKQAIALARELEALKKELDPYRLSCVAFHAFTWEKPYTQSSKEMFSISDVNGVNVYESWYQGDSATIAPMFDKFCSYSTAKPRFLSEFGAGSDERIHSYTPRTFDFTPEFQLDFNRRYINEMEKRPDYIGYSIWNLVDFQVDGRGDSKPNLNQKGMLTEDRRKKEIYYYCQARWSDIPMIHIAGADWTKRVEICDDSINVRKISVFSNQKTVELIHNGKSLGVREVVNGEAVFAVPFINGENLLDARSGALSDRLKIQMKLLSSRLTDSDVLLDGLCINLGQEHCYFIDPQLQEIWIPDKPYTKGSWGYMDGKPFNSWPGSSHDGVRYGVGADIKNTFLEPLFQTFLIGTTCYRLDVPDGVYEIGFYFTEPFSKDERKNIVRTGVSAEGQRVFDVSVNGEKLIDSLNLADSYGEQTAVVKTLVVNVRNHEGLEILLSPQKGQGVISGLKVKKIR

BfGUS = BfGUS (Bacteroides fragilis, UniProt Q5LIC7); details: 800 uM PNPG, optimal pH, 37 C, 50 mM HEPES
BuGUS = molecular target: T2, BuGUS (Bacteroides uniformis, UniProt A0A078SUX9); details: 800 uM PNPG, optimal pH, 37 C, 50 mM HEPES
T2 sequence (A0A078SUX9 32-886 limits assumed): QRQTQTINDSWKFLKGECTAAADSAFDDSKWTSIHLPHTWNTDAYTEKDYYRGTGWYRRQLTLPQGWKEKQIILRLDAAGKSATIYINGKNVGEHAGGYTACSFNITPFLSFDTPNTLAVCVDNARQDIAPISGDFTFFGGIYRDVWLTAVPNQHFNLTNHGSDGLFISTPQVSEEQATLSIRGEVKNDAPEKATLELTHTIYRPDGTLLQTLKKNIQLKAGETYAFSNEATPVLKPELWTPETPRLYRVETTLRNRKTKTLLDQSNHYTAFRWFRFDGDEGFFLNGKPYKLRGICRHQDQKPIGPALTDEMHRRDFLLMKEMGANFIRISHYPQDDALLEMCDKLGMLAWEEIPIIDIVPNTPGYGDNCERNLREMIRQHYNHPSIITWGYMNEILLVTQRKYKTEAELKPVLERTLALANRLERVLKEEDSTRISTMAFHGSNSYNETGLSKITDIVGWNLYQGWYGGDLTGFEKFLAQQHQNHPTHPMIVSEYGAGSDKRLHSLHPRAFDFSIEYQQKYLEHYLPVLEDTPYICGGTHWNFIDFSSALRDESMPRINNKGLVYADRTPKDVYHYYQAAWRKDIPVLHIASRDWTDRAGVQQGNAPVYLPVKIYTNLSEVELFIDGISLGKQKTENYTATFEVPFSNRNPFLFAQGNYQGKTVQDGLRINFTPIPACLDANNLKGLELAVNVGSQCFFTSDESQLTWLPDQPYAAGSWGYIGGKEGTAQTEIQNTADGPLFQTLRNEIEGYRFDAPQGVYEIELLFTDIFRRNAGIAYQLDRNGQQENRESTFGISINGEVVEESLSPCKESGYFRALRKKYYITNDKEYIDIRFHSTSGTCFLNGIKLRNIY

EeGUS = molecular target: T3, EeGUS (Lachnospira eligens, UniProt C4Z6Z2); details: 800 uM PNPG, pH 6.5, 37 C, 50 mM HEPES
T3 sequence (C4Z6Z2 1-611): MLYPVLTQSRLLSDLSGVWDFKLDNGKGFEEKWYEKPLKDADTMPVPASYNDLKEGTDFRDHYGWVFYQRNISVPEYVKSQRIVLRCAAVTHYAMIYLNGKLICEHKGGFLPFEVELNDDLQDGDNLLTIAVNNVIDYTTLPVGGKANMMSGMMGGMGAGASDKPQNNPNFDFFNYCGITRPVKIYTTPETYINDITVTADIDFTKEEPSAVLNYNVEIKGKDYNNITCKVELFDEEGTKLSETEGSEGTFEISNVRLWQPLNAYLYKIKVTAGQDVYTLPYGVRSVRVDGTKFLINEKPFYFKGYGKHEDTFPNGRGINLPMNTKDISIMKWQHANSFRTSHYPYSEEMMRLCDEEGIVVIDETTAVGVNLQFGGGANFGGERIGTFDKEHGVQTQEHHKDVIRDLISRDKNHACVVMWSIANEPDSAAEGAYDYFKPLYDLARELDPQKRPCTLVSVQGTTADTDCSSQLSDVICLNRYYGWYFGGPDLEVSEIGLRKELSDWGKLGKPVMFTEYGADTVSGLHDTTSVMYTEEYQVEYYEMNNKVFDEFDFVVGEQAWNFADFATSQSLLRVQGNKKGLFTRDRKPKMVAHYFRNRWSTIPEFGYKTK

EcGUS = EcGUS (Escherichia coli, UniProt P05804); details: 800 uM PNPG, optimal pH (broad, up to 7.4), 37 C, 50 mM HEPES
PmGUS = molecular target: T4, PmGUS (Parabacteroides merdae, UniProt K5ZWV5); details: 800 uM PNPG, optimal pH, 37 C, 50 mM HEPES
T4 sequence (K5ZWV5 20-826): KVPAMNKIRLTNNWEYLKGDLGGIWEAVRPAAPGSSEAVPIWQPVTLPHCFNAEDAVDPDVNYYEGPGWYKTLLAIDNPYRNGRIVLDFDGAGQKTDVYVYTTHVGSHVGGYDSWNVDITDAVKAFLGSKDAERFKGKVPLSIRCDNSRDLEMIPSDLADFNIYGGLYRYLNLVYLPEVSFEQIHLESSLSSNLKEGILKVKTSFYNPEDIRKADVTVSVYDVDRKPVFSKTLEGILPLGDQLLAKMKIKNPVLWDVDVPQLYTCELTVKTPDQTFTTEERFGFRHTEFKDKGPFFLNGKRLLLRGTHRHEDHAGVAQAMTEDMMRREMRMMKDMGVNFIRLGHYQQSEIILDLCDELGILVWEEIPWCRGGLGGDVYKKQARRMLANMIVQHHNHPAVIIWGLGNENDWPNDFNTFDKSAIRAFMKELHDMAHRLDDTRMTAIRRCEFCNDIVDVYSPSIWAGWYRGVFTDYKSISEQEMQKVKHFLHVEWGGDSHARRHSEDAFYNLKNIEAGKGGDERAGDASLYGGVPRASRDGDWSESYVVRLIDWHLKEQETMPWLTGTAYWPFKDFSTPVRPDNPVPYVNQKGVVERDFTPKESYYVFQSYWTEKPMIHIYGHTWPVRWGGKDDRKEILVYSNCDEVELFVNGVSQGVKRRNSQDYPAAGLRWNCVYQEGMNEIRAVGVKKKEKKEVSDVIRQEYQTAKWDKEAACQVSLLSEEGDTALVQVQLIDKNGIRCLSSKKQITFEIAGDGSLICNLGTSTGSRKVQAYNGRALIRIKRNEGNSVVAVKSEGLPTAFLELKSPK

Chain of BfGUS (Q5LIC7 38-693): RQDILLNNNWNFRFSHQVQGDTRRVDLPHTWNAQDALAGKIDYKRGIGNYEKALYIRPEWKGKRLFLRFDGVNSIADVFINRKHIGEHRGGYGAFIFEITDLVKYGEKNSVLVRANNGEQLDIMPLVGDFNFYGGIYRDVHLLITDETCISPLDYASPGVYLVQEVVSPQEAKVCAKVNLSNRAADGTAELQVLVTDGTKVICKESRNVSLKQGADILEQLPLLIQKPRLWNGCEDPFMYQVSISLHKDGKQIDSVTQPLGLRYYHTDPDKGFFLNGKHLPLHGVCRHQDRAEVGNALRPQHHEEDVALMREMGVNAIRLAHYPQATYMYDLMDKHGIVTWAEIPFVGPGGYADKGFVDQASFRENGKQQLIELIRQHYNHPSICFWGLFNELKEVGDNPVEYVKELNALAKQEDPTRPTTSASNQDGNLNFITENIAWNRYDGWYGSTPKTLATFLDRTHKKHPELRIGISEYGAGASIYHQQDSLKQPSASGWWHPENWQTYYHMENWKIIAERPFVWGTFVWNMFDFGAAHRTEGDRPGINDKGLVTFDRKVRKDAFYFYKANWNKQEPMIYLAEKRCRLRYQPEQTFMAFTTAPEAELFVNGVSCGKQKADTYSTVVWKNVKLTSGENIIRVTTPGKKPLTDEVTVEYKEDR
Chain of EcGUS (P05804 whole entry): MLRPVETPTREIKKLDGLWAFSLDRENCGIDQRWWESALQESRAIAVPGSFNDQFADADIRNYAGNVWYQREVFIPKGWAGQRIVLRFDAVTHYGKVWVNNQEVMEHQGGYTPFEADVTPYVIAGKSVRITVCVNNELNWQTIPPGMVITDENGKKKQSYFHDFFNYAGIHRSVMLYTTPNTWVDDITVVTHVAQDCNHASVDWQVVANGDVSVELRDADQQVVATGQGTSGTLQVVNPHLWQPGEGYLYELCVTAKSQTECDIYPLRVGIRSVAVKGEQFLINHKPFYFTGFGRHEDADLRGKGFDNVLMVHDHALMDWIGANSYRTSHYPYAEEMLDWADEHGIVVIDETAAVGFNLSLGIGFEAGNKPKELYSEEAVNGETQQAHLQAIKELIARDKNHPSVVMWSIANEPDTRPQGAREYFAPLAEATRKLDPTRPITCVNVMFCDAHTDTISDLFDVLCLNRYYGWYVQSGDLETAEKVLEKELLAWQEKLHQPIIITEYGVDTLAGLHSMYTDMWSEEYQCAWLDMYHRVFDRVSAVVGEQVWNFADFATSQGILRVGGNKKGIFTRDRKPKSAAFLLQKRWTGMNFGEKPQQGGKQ

O=C(O)[C@H]1O[C@@H](Oc2ccc([N+](=O)[O-])cc2)[C@H](O)[C@@H](O)[C@@H]1O [PNPG]
absorbance of p-nitrophenol at 410 nm (BdGUS): PNPG kinetic studies with each enzyme at its optimum pH
absorbance of p-nitrophenol at 410 nm (BfGUS): PNPG kinetic studies with each enzyme at its optimum pH
absorbance of p-nitrophenol at 410 nm (BuGUS): PNPG kinetic studies with each enzyme at its optimum pH
absorbance of p-nitrophenol at 410 nm (EeGUS): E. coli and Eu. eligens GUS are remarkably efficient at PNPG processing
absorbance of p-nitrophenol at 410 nm (EcGUS): E. coli and Eu. eligens GUS are remarkably efficient at PNPG processing
absorbance of p-nitrophenol at 410 nm (PmGUS): PNPG kinetic studies with each enzyme at its optimum pH
